Read-outs that look alike come from different tables or passages of the source.
Tests used:
[1] = molecular target: rat CCR2 (Rattus norvegicus (Rat), UniProt O55193); assay: Inhibition of native agonist (rat MCP-1)-induced intracellular calcium release, calcium flux assay in CHO cells expressing rat CCR2 and Gα16; assay type: cell-based; conditions: read-out: rCCR2 Kb
Excerpt: (§1) CHO cells expressing human CCR2B were generated as follows. cDNA for human CCR2B (cloned from human blood) was cloned into plasmid pcDNA3.1 (from Invitrogen). The resulting plasmids were separately transfected into CHO cells expressing human Gα16 (from Molecular Devices). […] CHO cells expressing rat CCR2 were generated as follows. cDNA for rat CCR2 (cloned from rat macrophage) was cloned into plasmid pEF-flag (from Chinese Academy of Science). The resulting plasmids were transfected into CHO cells expressing human Gα16 (from […]).
(§2) Inhibition of Native Agonist-Induced Intracellular Calcium Release in Cells Expressing hCCR2B or rCCR2
(§3) Calcium flux assays were performed in CHO cells expressing human CCR2B and Gα16 coupling protein, or rat CCR2 and Gα16 coupling protein. All compounds were dissolved in DMSO and assays run at a final DMSO concentration of 0.25% (v/v). Human MCP-1 was purchased from PeproTech and used at a final assay concentration of 2 nM, while rat MCP-1 was purchased from R&D and used at a final assay concentration of 4 nM. Assays with cells expressing human CCR2B were performed with human MCP-1, while assays with cells expressing rat CCR2 were performed with rat MCP-1.
(§4) Briefly, cells were cultured overnight in a microtiter plate at 8000 per well. The next day, the resultant adherent cells were incubated in assay buffer (20 mM HEPES, pH 7.4, 0.1% bovine serum albumin, and 2.5 mM probenocid in Hank's Buffered Saline Solution) containing Calcium 4 dye (Molecular Probes) at 37° C. for 60 minutes. Calcium flux assays were performed on a FLIPR^Tetra instrument (Molecular Devices) by adding compound to the cells followed by addition of native agonist and measuring the change in fluorescence as a function of time. Maximal and minimal values for fluorescence were determined using native agonist (2 nM MCP-1) for human or rat CCR2, or buffer addition, respectively. Fluorescence values were used to calculate the percent inhibition at a given compound concentration and the data fit to a sigmoidal curve in a semi-log plot to determine IC50 values. The Kb value is calculated as Kb=IC50/(1+[agonist]/EC50), where [agonist] is the concentration of agonist used and EC50 is the agonist potency determined in the previous experiments. Mean Kb values and IC50 of the compounds assayed are reported in Table 2 and Table 3 respectively.

[2] = molecular target: human CCR2B (Homo sapiens (Human), UniProt P41597); assay: Inhibition of native agonist (human MCP-1)-induced intracellular calcium release, calcium flux assay in CHO cells expressing human CCR2B and Gα16; assay type: cell-based; conditions: for IC50: read-out: hCCR2B IC50
Excerpt: as §1, §2, §3, §4

Chain of rat CCR2 (O55193 whole entry): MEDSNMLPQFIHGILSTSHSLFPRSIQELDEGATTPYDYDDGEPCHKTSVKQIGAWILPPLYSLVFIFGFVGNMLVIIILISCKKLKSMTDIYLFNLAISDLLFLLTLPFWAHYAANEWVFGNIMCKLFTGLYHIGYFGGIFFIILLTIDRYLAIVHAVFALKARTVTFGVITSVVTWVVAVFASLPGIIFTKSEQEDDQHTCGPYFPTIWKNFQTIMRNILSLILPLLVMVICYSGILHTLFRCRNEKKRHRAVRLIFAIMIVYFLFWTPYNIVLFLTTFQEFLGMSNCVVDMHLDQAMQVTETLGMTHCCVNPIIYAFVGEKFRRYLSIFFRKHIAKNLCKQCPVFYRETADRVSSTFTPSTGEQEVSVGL
Chain of human CCR2B (P41597 other isoform, or with tags, fused parts or gaps): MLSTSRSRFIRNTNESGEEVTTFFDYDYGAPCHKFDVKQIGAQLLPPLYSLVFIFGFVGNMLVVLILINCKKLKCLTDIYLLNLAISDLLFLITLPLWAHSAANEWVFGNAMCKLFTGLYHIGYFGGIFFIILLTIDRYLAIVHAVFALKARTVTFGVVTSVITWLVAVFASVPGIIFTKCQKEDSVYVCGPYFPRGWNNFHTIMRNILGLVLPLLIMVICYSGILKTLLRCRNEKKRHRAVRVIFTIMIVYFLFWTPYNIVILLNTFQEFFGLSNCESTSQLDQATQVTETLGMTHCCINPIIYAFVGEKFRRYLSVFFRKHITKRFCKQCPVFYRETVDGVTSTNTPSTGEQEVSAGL

Row | SMILES | Kb [1] [nM] | IC50 ([2]; calcium flux, human MCP-1 2 nM) [nM] | Kb ([2]; read-out: hCCR2B Kb) [nM] | IC50 [2] [nM] | Kb [2] [nM]
1 | O=C(O)c1cccc(C2CCN([C@@H]3C[C@H]4CCC[C@@]4(C(=O)N4C[C@@H]5C[C@H]4CN5c4cc(C(F)(F)F)ccn4)C3)CC2)c1 [Example 10, 3-{1-[(2R,3aR,6aR)-3a-({(1S,4S)-5-[4-(trifluoromethyl)pyridin-2-yl]-2,5-diazabicyclo[2.2.1]hept-2-yl}carbonyl)octahydropentalen-2-yl]piperidin-4-yl}benzoic acid] | 38 | 1600 | 394 |  | 
2 | CO[C@@H]1COCC[C@@H]1N[C@@H]1C[C@H]2CCC[C@@]2(C(=O)N2C[C@@H]3C[C@H]2CN3c2cccc(C(F)(F)F)c2F)C1 [Example 17, 1,5-anhydro-2,3-dideoxy-3-{[(2R,3aR,6aR)-3a-({(1S,4S)-5-[2-fluoro-3-(trifluoromethyl)phenyl]-2,5-diazabicyclo[2.2.1]hept-2-yl}carbonyl)octahydropentalen-2-yl]amino}-4-O-methyl-D-erythro-pentitol] | 160 | 1290 | 316 |  | 
3 | CO[C@@H]1COCC[C@@H]1N[C@@H]1C[C@H]2CCC[C@@]2(C(=O)N2C[C@@H]3C[C@H]2CN3c2nccc(C(F)(F)F)c2F)C1 [Example 21, 1,5-anhydro-2,3-dideoxy-3-{[(2R,3aR,6aR)-3a-({(1S,4S)-5-[3-fluoro-4-(trifluoromethyl)pyridin-2-yl]-2,5-diazabicyclo[2.2.1]hept-2-yl}carbonyl)octahydropentalen-2-yl]amino}-4-O-methyl-D-erythro-pentitol] | 91 | 821 | 201 |  | 
4 | CO[C@@H]1COCC[C@@H]1N[C@@H]1C[C@H]2CCC[C@@]2(C(=O)N2C[C@@H]3C[C@H]2CN3c2cccc(C(F)(F)F)c2C)C1 [Example 23, 1,5-anhydro-2,3-dideoxy-4-O-methyl-3-{[(2R,3aR,6aR)-3a-({(1S,4S)-5-[2-methyl-3-(trifluoromethyl)phenyl]-2,5-diazabicyclo[2.2.1]hept-2-yl}carbonyl)octahydropentalen-2-yl]amino}-D-erythro-pentitol] | 158 | 1110 | 272 |  | 
5 | CO[C@@H]1COCC[C@@H]1N[C@@H]1C[C@H]2CCC[C@@]2(C(=O)N2C[C@@H]3C[C@H]2CN3c2cc(C)cc(C(F)(F)F)c2)C1 [Example 24, 1,5-anhydro-2,3-dideoxy-4-O-methyl-3-{[(2R,3aR,6aR)-3a-({(1S,4S)-5-[3-methyl-5-(trifluoromethyl)phenyl]-2,5-diazabicyclo[2.2.1]hept-2-yl}carbonyl)octahydropentalen-2-yl]amino}-D-erythro-pentitol] | 116 | 1390 | 341 |  | 
6 | COc1ccc(N2C[C@@H]3C[C@H]2CN3C(=O)[C@@]23CCC[C@@H]2C[C@@H](N[C@H]2CCOC[C@H]2OC)C3)cc1C(F)(F)F [Example 31, 1,5-anhydro-2,3-dideoxy-3-{[(2R,3aR,6aR)-3a-({(1S,4S)-5-[4-methoxy-3-(trifluoromethyl)phenyl]-2,5-diazabicyclo[2.2.1]hept-2-yl}carbonyl)octahydropentalen-2-yl]amino}-4-O-methyl-D-erythro-pentitol] | 22 | 1020 | 250 |  | 
7 | CO[C@@H]1COCC[C@@H]1N[C@@H]1C[C@H]2CCC[C@@]2(C(=O)N2C[C@@H]3C[C@H]2CN3c2ncccc2C(F)(F)F)C1 [Example 33, 1,5-anhydro-2,3-dideoxy-4-O-methyl-3-{[(2R,3aR,6aR)-3a-({(1S,4S)-5-[3-(trifluoromethyl)pyridin-2-yl]-2,5-diazabicyclo[2.2.1]hept-2-yl}carbonyl)octahydropentalen-2-yl]amino}-D-erythro-pentitol] | > 1330 |  | > 6140 | 25000 | 
8 | CO[C@@H]1COCC[C@@H]1N[C@@H]1C[C@H]2CCC[C@@]2(C(=O)N2C[C@@H]3C[C@H]2CN3c2ccc(C(F)(F)F)cn2)C1 [Example 34, 1,5-anhydro-2,3-dideoxy-4-O-methyl-3-{[(2R,3aR,6aR)-3a-({(1S,4S)-5-[5-(trifluoromethyl)pyridin-2-yl]-2,5-diazabicyclo[2.2.1]hept-2-yl}carbonyl)octahydropentalen-2-yl]amino}-D-erythro-pentitol] | 342 |  | 682 | 2780 | 
9 | CO[C@@H]1COCC[C@@H]1N[C@@H]1C[C@H]2CCC[C@@]2(C(=O)N2C[C@@H]3C[C@H]2CN3c2ccnc(Cl)c2)C1 [Example 35, 1,5-anhydro-3-{[(2R,3aR,6aR)-3a-{[(1S,4S)-5-(2-chloropyridin-4-yl)-2,5-diazabicyclo[2.2.1]hept-2-yl]carbonyl}octahydropentalen-2-yl]amino}-2,3-dideoxy-4-O-methyl-D-erythro-pentitol] | 240 | 2780 | 682 |  | 
10 | CO[C@@H]1COCC[C@@H]1N[C@@H]1C[C@H]2CCC[C@@]2(C(=O)N2C[C@@H]3C[C@H]2CN3c2ccc(C#N)cc2C(F)(F)F)C1 [Example 37, 1,5-anhydro-3-{[(2R,3aR,6aR)-3a-({(1S,4S)-5-[4-cyano-2-(trifluoromethyl)phenyl]-2,5-diazabicyclo[2.2.1]hept-2-yl}carbonyl)octahydropentalen-2-yl]amino}-2,3-dideoxy-4-O-methyl-D-erythro-pentitol] | 248 | 1600 | 393 |  | 
11 | CO[C@@H]1COCC[C@H]1N[C@@H]1C[C@H]2CCC[C@@]2(C(=O)N2[C@@H]3CC[C@H]2CN(c2cc(C(F)(F)F)ccn2)C3)C1 [Example 41, 1,5-anhydro-2,3-dideoxy-4-O-methyl-3-{[(2R,3aR,6aR)-3a-({(1R,5S)-3-[4-(trifluoromethyl)pyridin-2-yl]-3,8-diazabicyclo[3.2.1]oct-8-yl}carbonyl)octahydropentalen-2-yl]amino}-D-threo-pentitol] | > 4000 | 25000 | > 6140 |  | 
12 | CO[C@@H]1COCC[C@@H]1N[C@@H]1C[C@H]2CCC[C@@]2(C(=O)N2C[C@@H]3C[C@H]2CN3c2cc(C#N)cc(C(F)(F)F)c2)C1 [Example 42, 1,5-anhydro-3-{[(2R,3aR,6aR)-3a-({(1S,4S)-5-[3-cyano-5-(trifluoromethyl)phenyl]-2,5-diazabicyclo[2.2.1]hept-2-yl}carbonyl)octahydropentalen-2-yl]amino}-2,3-dideoxy-4-O-methyl-D-erythro-pentitol] | 26 |  |  | 812 | 199
13 | CO[C@@H]1COCC[C@@H]1N[C@@H]1C[C@H]2CCC[C@@]2(C(=O)N2C[C@@H]3C[C@H]2CN3c2cc(C(F)(F)F)cc(C(F)(F)F)c2)C1 [Example 43, 1,5-anhydro-3-{[(2R,3aR,6aR)-3a-({(1S,4S)-5-[3,5-bis(trifluoromethyl)phenyl]-2,5-diazabicyclo[2.2.1]hept-2-yl}carbonyl)octahydropentalen-2-yl]amino}-2,3-dideoxy-4-O-methyl-D-erythro-pentitol] | 53 |  | 373 |  | 
14 | CO[C@@H]1COCC[C@@H]1N[C@@H]1C[C@H]2CCC[C@@]2(C(=O)N2C[C@@H]3C[C@H]2CN3c2cccc(Cl)c2C#N)C1 [Example 44, 1,5-anhydro-3-{[(2R,3aR,6aR)-3a-{[(1S,4S)-5-(3-chloro-2-cyanophenyl)-2,5-diazabicyclo[2.2.1]hept-2-yl]carbonyl}octahydropentalen-2-yl]amino}-2,3-dideoxy-4-O-methyl-D-erythro-pentitol] | 486 | 1600 | 394 |  | 

From patent US8906911B2, “Chemokine receptor antagonists” (AbbVie Inc., priority 2012, dated 2014)
